Reference: patent US11370774B2, “Substituted benzofuran, benzopyrrole, benzothiophene, and structurally related complement inhibitors” (BioCryst Pharmaceuticals, Inc., priority 2018, dated 2022)

The molecules below were run against Factor D (Homo sapiens (Human), UniProt P00746) (assay: Factor D esterolytic assay (Z-Lys-SBzl substrate, DTNB, 405 nm)). Details: Z-Lys-SBzl 1.29 mM, pH 7.5, 10% DMSO, tested a minimum of three times, read-out: Measured Ki (IC50) Value for Compounds: IC50.
Format: biochemical
In short: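 Human Factor D ([…]) with 1.29 mM Z-Lys-SBzl in 100 mM HEPES, 500 mM NaCl, pH 7.5, 10% DMSO; substrate added immediately or after room-temperature preincubation. Released thiol reacted with DTNB, rate followed at 405 nm for 600 sec, 690 nm background subtracted. IC50 from percent inhibition versus uninhibited rate, n≥3.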

Chain of Factor D (P00746 26-253): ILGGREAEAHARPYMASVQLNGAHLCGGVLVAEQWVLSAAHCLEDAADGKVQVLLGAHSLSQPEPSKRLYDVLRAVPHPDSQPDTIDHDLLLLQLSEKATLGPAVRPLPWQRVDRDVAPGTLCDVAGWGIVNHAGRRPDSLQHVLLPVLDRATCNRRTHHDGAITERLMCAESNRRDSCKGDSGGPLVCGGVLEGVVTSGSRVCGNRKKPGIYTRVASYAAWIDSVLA

| IC50 [µM] | SMILES |
| --- | --- |
| < 1 | Cc1oc2c(-c3cccc(CN)c3)cc(COc3ccccc3CC(=O)O)cc2c1C [Compound 333g, 2-(2-((7-(3-(aminomethyl)phenyl)-2,3-dimethylbenzofuran-5-yl)methoxy)phenyl)acetic acid] |
| 1 to 10 | COc1c(C(=O)Nc2ccccc2CC(=O)O)cc(-c2ccnc(CN)c2F)c2occc12 [Compound 334d, 2-(2-(7-(2-(aminomethyl)-3-fluoropyridin-4-yl)-4-methoxybenzofuran-5-carboxamido)phenyl)acetic acid] |
| > 10 | NCc1cc(-c2cc(COc3ccccc3CC(=O)O)cc3ccoc23)c2occc2c1 [Compound 335d, 2-(2-((5′-(aminomethyl)-[7,7′-bibenzofuran]-5-yl)methoxy)phenyl)acetic acid] |
| < 1 | NCc1cc(-c2cc(COc3ccccc3CC(=O)O)cc3sc(Cl)cc23)ccn1 [Compound 336c, 2-(2-((4-(2-(aminomethyl)pyridin-4-yl)-2-chlorobenzo[b]thiophen-6-yl)methoxy)phenyl)acetic acid] |
| < 1 | NCc1cccc(-c2cc(COc3ccccc3CC(=O)O)cc3sc(Cl)cc23)c1F [Compound 337b, 2-(2-((4-(3-(aminomethyl)-2-fluorophenyl)-2-chlorobenzo[b]thiophen-6-yl)methoxy)phenyl)acetic acid] |
| < 1 | NCc1nccc(-c2cc(COc3ccccc3CC(=O)O)cc3sc(Cl)cc23)c1F [Compound 338c, 2-(2-((4-(2-(aminomethyl)-3-fluoropyridin-4-yl)-2-chlorobenzo[b]thiophen-6-yl)methoxy)phenyl)acetic acid] |
| < 1 | NCc1cc(-c2cc(COc3ccccc3CC(=O)O)cc3ccoc23)cs1 [Compound 339c, 2-(2-((7-(5-(aminomethyl)thiophen-3-yl)benzofuran-5-yl)methoxy)phenyl)acetic acid] |
| < 1 | Nc1c[nH]c2c(-c3cc(COc4ccccc4CC(=O)O)cc4ccoc34)cccc12 [Compound 341e, 2-(2-((7-(3-amino-1H-indol-7-yl)benzofuran-5-yl)methoxy)phenyl)acetic acid] |
| < 1 | Cc1ccc(CC(=O)O)c(OCc2cc(-c3ccnc(CN)c3F)c3occc3c2F)c1 [Compound 342e, 2-(2-((7-(2-(aminomethyl)-3-fluoropyridin-4-yl)-4-fluorobenzofuran-5-yl)methoxy)-4-methylphenyl)acetic acid] |
| < 1 | Cc1ccc(CC(=O)O)c(OCc2cc(-c3ccnc(CN)c3F)c3occ(C(F)(F)F)c3c2)c1 [Compound 343e, 2-(2-((7-(2-(aminomethyl)-3-fluoropyridin-4-yl)-3-(trifluoromethyl)benzofuran-5-yl)methoxy)-4-methylphenyl)acetic acid] |
| < 1 | COCCOCCOCCOCc1cc2cc(COc3ccccc3CC(=O)O)cc(-c3cccc(CN)c3)c2o1 [Compound 344f, 2-(2-((7-(3-(aminomethyl)phenyl)-2-(2,5,8,11-tetraoxadodecyl)benzofuran-5-yl)methoxy)phenyl)acetic acid] |
| < 1 | Cc1ccc(CC(=O)O)c(OCc2cc(-c3cccc(CN)c3)c3occ(C(F)(F)F)c3c2)c1 [Compound 345b, 2-(2-((7-(3-(aminomethyl)phenyl)-3-(trifluoromethyl)benzofuran-5-yl)methoxy)-4-methylphenyl)acetic acid] |
| < 1 | Cc1ccc(CC(=O)O)c(OCc2cc(-c3ccnc(CN)c3)c3occc3c2F)c1 [Compound 346c, 2-(2-((7-(2-(aminomethyl)pyridin-4-yl)-4-fluorobenzofuran-5-yl)methoxy)-4-methylphenyl)acetic acid] |
| < 1 | Cc1ccc(CC(=O)O)c(OCc2cc(-c3cccc(CN)c3)c3occc3c2F)c1 [Compound 347b, 2-(2-((7-(3-(aminomethyl)phenyl)-4-fluorobenzofuran-5-yl)methoxy)-4-methylphenyl)acetic acid] |
| < 1 | Cc1ccc(CC(=O)O)c(OCc2cc(-c3cccc(CN)c3F)c3occc3c2F)c1 [Compound 348b, 2-(2-((7-(3-(aminomethyl)-2-fluorophenyl)-4-fluorobenzofuran-5-yl)methoxy)-4-methylphenyl)acetic acid] |
| < 1 | Cc1ccc(CC(=O)O)c(OCc2cc(-c3cccc(CN)c3F)c3occ(C(F)(F)F)c3c2)c1 [Compound 349b, 2-(2-((7-(3-(aminomethyl)-2-fluorophenyl)-3-(trifluoromethyl)benzofuran-5-yl)methoxy)-4-methylphenyl)acetic acid] |
| < 1 | COc1ccc(OCc2cc(-c3cccc(CN)c3)c3occc3c2)c(CC(=O)O)c1 [Compound 350e, 2-(2-((7-(3-(aminomethyl)phenyl)benzofuran-5-yl)methoxy)-5-methoxyphenyl)acetic acid] |
| < 1 | NCc1cccc(-c2cc(COc3ccccc3CC(=O)O)cc3c2ccn3-c2ccccc2)c1 [Compound 351f, 2-(2-((4-(3-(aminomethyl)phenyl)-1-phenyl-1H-indol-6-yl)methoxy)phenyl)acetic acid] |

| IC50 [µM] | SMILES |
| --- | --- |
| < 1 | Cc1ccc(CC(=O)O)c(OCc2cc(-c3cccc(CN)c3)c3ccn(C(C)C)c3c2)c1 [Compound 352c, 2-(2-((4-(3-(aminomethyl)phenyl)-1-isopropyl-1H-indol-6-yl)methoxy)-4-methylphenyl)acetic acid] |
| < 1 | Cc1ccc(CC(=O)O)c(OCc2cc(-c3cccc(CN)c3F)c3ccn(C(C)C)c3c2)c1 [Compound 353b, 2-(2-((4-(3-(aminomethyl)-2-fluorophenyl)-1-isopropyl-1H-indol-6-yl)methoxy)-4-methylphenyl)acetic acid] |
| < 1 | Cc1ccc(CC(=O)O)c(OCc2cc(-c3ccnc(CN)c3)c3ccn(C(C)C)c3c2)c1 [Compound 354c, 2-(2-((4-(2-(aminomethyl)pyridin-4-yl)-1-isopropyl-1H-indol-6-yl)methoxy)-4-methylphenyl)acetic acid] |
| < 1 | Cc1ccc(CC(=O)O)c(OCc2cc(-c3ccnc(CN)c3F)c3ccn(C(C)C)c3c2)c1 [Compound 355c, 2-(2-((4-(2-(aminomethyl)-3-fluoropyridin-4-yl)-1-isopropyl-1H-indol-6-yl)methoxy)-4-methylphenyl)acetic acid] |
| < 1 | COc1ccc(CC(=O)O)c(OCc2cc(-c3cccc(CN)c3)c3ccn(C(C)C)c3c2)c1 [Compound 356c, 2-(2-((4-(3-(aminomethyl)phenyl)-1-isopropyl-1H-indol-6-yl)methoxy)-4-methoxyphenyl)acetic acid] |
| < 1 | COc1ccc(CC(=O)O)c(OCc2cc(-c3cccc(CN)c3F)c3ccn(C(C)C)c3c2)c1 [Compound 357b, 2-(2-((4-(3-(aminomethyl)-2-fluorophenyl)-1-isopropyl-1H-indol-6-yl)methoxy)-4-methoxyphenyl)acetic acid] |
| < 1 | Cc1ccc(CC(=O)O)c(OCc2cc(-c3cccc(CN)c3)c3ccn(C)c3c2)c1 [Compound 358c, 2-(2-((4-(3-(aminomethyl)phenyl)-1-methyl-1H-indol-6-yl)methoxy)-4-methylphenyl)acetic acid] |
| < 1 | Cc1ccc(CC(=O)O)c(OCc2cc(-c3cccc(CN)c3F)c3ccn(C)c3c2)c1 [Compound 359b, 2-(2-((4-(3-(aminomethyl)-2-fluorophenyl)-1-methyl-1H-indol-6-yl)methoxy)-4-methylphenyl)acetic acid] |
| < 1 | CC(=O)Nc1ccc(OCc2cc(-c3cccc(CN)c3)c3occc3c2)c(CC(=O)O)c1 [Compound 360c, 2-(5-acetamido-2-((7-(3-(aminomethyl)phenyl)benzofuran-5-yl)methoxy)phenyl)acetic acid] |
| < 1 | NCc1cccc(-c2cc(COc3cc(CO)ccc3CC(=O)O)cc3ccoc23)c1 [Compound 361c, 2-(2-((7-(3-(aminomethyl)phenyl)benzofuran-5-yl)methoxy)-4-(hydroxymethyl)phenyl)acetic acid] |
| < 1 | NCc1cccc(-c2cc(COc3ccccc3CC(=O)O)cc3c2ccn3Cc2ccccc2)c1 [Compound 362e, 2-(2-((4-(3-(aminomethyl)phenyl)-1-benzyl-1H-indol-6-yl)methoxy)phenyl)acetic acid] |
| < 1 | NCc1cccc(-c2cc(COc3cc(F)ccc3CC(=O)O)cc3ccoc23)c1F [Compound 363b, 2-(2-((7-(3-(aminomethyl)-2-fluorophenyl)benzofuran-5-yl)methoxy)-4-fluorophenyl)acetic acid] |
| < 1 | NCc1nccc(-c2cc(COc3cc(F)ccc3CC(=O)O)cc3ccoc23)c1F [Compound 364d, 2-(2-((7-(2-(aminomethyl)-3-fluoropyridin-4-yl)benzofuran-5-yl)methoxy)-4-fluorophenyl)acetic acid] |
| < 1 | NCc1cc(-c2cc(COc3cc(F)ccc3CC(=O)O)cc3ccoc23)ccn1 [Compound 365f, 2-(2-((7-(2-(aminomethyl)pyridin-4-yl)benzofuran-5-yl)methoxy)-4-fluorophenyl)acetic acid] |
| < 1 | Cc1ccc(CC(=O)O)c(OCc2cc(-c3ccnc(CN)c3F)c3ccn(C)c3c2)c1 [Compound 366d, 2-(2-((4-(2-(aminomethyl)-3-fluoropyridin-4-yl)-1-methyl-1H-indol-6-yl)methoxy)-4-methylphenyl)acetic acid] |
| < 1 | Cc1ccc(CC(=O)O)c(OCc2cc(-c3ccnc(CN)c3)c3ccn(C)c3c2)c1 [Compound 367c, 2-(2-((4-(2-(aminomethyl)pyridin-4-yl)-1-methyl-1H-indol-6-yl)methoxy)-4-methylphenyl)acetic acid] |
| < 1 | NCc1cccc(-c2cc(CC(=O)N3C[C@H](F)C[C@H]3C(=O)NCc3cccc(Cl)c3F)cc3ccoc23)c1 [Compound 368c, (2S,4R)-1-(2-(7-(3-(aminomethyl)phenyl)benzofuran-5-yl)acetyl)-N-(3-chloro-2-fluorobenzyl)-4-fluoropyrrolidine-2-carboxamide] |
